The values that follow come from PMC3365589 (Journal of the American Chemical Society, 2011).

Data set [1] deals with α1_2βγδ (Torpedo) nAChR. The conditions noted are these: read-out: Kd of radioligand on muscle-type receptor; cited from earlier work.
Another data set has as its system mice. The conditions noted are these: intraperitoneal injection of a lethal dose.
For another data set, the system named is human M2 mAChR. Briefly: [3H]NMS binding inhibition, CHO cell membranes, M2. The conditions noted are these: 1 μM.
The next data set relates to human M5 mAChR. Briefly: [3H]NMS binding inhibition, CHO cell membranes, M5. The conditions noted are these: 1 μM, M5, [3H]NMS.
In a further data set the test system is calcium channels. In words: Broad receptor binding screening. The conditions noted are these: 10 μM.
The subject of the next data set is human M3 mAChR. In words: [3H]NMS binding inhibition, CHO cell membranes, M3. The conditions noted are these: 1 μM.
The target of a further data set is human α4β2 nAChR (Homo sapiens, UniProt P17787+P43681). It counts as binding.
Another data set addresses human α3β2 nAChR (Homo sapiens, UniProt P17787+P32297). The class given is binding. The conditions noted are these: read-out: Ki ± SEM, [3H]epibatidine.
The next data set concerns the target chimeric α7-5HT3 nAChR (UniProt P22770+P23979, M226I/T225I). It counts as binding. The conditions noted are these: read-out: Ki ± SEM; α7–5HT3 (chick), [125I]α-BTX.
For the next data set, the system named is human M4 mAChR. In words: [3H]NMS binding inhibition, CHO cell membranes, M4. The conditions noted are these: 1 μM.
A further data set deals with human α7 nAChR (Homo sapiens, UniProt P36544). The class given is cell-based.
In a further data set the test system is human M1 mAChR. In words: [3H]NMS binding inhibition, CHO cell membranes, M1. The conditions noted are these: 1 μM.
Data set [2] concerns the target α1_2βγδ (Torpedo) nAChR. Briefly: Equilibrium competition binding with [125I]α-BTX on Torpedo membranes. The conditions noted are these: read-out: Ki ± SEM.

α-bungarotoxin [α-BTX]: on α1_2βγδ (Torpedo) nAChR [1], the dissociation constant (Kd) (usually a measure of binding affinity in units of concentration) is 0.05 nM.
As for `C=C1CCCC2=NC[C@H](C)[C@@H](C)C[C@@]23CCC(C(=O)O)=C[C@@H]3[C@@H]2O[C@]3(C[C@H]4CCC[C@@]5(CC[C@@]6(O[C@@H](CC[C@@]6(C)O)C1)O5)O4)C[C@@H](C)[C@@H](O)[C@H]2O3` [PnTX A, pinnatoxin A], the “Toxicological profile (symptoms)” value in the data set with mice is reported as “transient mouse hyperactivity, followed by a decrease in respiratory rate with prominent abdominal breathing leading to death due to respiratory paralysis”. The “Effect on 3H-NMS binding” value with human M2 mAChR, with human M3 mAChR, with human M4 mAChR and in the data set on human M1 mAChR was “no significant effect” in each case. Moreover, the Radiotracer displacement in the data set on human M5 mAChR was found to be 35%. In addition, in the data set on calcium channels, the “Binding activity for calcium channels” value is “no significant binding activity”. Further, the “Fraction of [3H]epibatidine displaced (partial antagonist property)” value at human α4β2 nAChR is “approximately half”. Further, the Ki (in general, a dissociation constant, usually derived from enzyme kinetics or from competition with a known ligand) on human α4β2 nAChR (read-out: Ki ± SEM, α4β2 (human), [3H]epibatidine) is 15.6 ± 5.2 nM; on human α3β2 nAChR, 9.4 ± 1.9 nM; at chimeric α7-5HT3 nAChR, 0.35 ± 0.04 nM; at α1_2βγδ (Torpedo) nAChR [2], 2.8 ± 0.03 nM. In addition, the “Effect on rate of desensitization of ACh-evoked currents” value at human α7 nAChR (350 μM ACh, −60 mV) is given as “did not appear to affect the rate of desensitization”. In addition, at human α7 nAChR (0.1–50 nM, n = 6), the “Direct agonist effect (current evoked when applied on its own)” value is “did not evoke any current”. The “Reversibility of blocking action on α7 nAChR” value at human α7 nAChR (after a 10–15 min washout) is reported as “not reversible”.
